Results: PMC9433906, “Evaluation of the biotechnological potential of peptide Cupiennin 1a and analogs” (Frontiers in Microbiology, 2022)
Values after ≈ are worked out from the molar mass of the structure shown. Where a SMILES comes first, the peptide text is derived from it.

What was measured:
[1] = test system: C. parapsilosis (ATCC22019); test: Broth microdilution MIC (CLSI M27-A3 with modifications); assay type: cell-based, Candida parapsilosis; settings: 2.5 × 10^3 CFU.ml^−1, Sabouraud medium, 24 h at 30°C, absorbance 595 nm
Experimental: The broth microdilution method was performed according to the Clinical and Laboratory Standards Institute Guideline M27-A3 with modifications to determine the Minimum Inhibitory Concentration (MIC; [Clinical Laboratory Standards Institute, 2008]).
Initially, the fungus C. parapsilosis (ATCC22019) was grown in a Petri dish containing Sabouraud Dextrose Agar medium (Dextrose 40 g/L; Peptic digestion of animal tissue 5.0 g.L^−1; and Agar 15 g.L^−1) for 48 h. Subsequently, a pre-inoculum was performed from a yeast colony that was placed in 10 ml of liquid Sabouraud medium and incubated for 16 h at 28°C, with a constant rotation of 200 rpm. After the incubation period, 2.5 × 10^3 CFU.ml^−1 of fungus per well was incubated with different peptide micromolar concentrations (Table 1) to assess the MIC for each peptide.
Fungal cells incubated with Sabouraud medium were used as negative control, while positive control was represented by fungal cells incubated in Sabouraud medium and amphotericin B (10 μM). Subsequently, plates were incubated for 24 h at 30°C. After this period, the absorbance was read (595 nm) in a BioTek spectrophotometer (PowerWaveTM HT Microplate Reader), and data of antifungal activity with percentage of inhibition of peptides were plotted in GraphPad Prism 8 Software.

[2] = test system: Human fibroblast (Hfib) cells; test: MTT cytotoxicity test against human fibroblasts (Hfib); assay type: cell-based; settings: 24 h; for cytotoxicity against Hfib cells at the other concentrations (in words): concentrations other than the highest
Experimental: Human fibroblast (Hfib) cell cultures were cultivated in Dulbecco’s Modified Eagle Medium (DMEM; Sigma-Aldrich, United States) supplemented with 10% fetal bovine serum (Sigma-Aldrich). Hfib were cultured in a humidified incubator containing 5% CO2 at 37°C and 95% humidity.
Hfib cell line was seeded onto 96-well plates (1 × 10^3 cells/well, 100 μl) before treatment and allowed to adhere and grow over the 24 h period. Each peptide was subsequently added at different micromolar concentrations. The results were evaluated using GraphPad Prism 8 software, where a One-Way ANOVA statistical test followed by Bonferroni’s multiple comparisons test was performed.
Cell viability analyses were performed in technical and biological replicates, and readings were obtained after 24 h of contact with peptides. At the end of the incubation period, MTT (Sigma-Aldrich, United States) was used to assess the ability of living cells to reduce salt 3-[4,5-dimethylthiazole-2-yl]-2,5-diphenyltetrazolium bromide for formazan production. Plates were read at 570 ηm ([Mosmann, 1983]) and results were expressed in the percentage of living cells. The results were analyzed using GraphPad Prism 8 software where a One-Way ANOVA statistical test was followed by Bonferroni’s multiple comparisons test.

[3] = test system: K. pneumoniae (ATCC 13883); assay type: cell-based, Klebsiella pneumoniae; settings: K. pneumoniae (ATCC13883); 5×10^5 CFU.ml^−1, Mueller-Hinton Broth, 37°C, 24 h, OD 595 nm, biological triplicates
Experimental: (§1) Susceptibility tests were performed using clinical isolates of Klebsiella pneumoniae carbapenemase (KPC 1410503) and methicillin-resistant S. aureus (MRSA 3730592). Tests were also performed with ATCC (American Type Culture Collection) isolates of K. pneumoniae (ATCC 13883) and S. aureus (ATCC 25923).
(§2) Two multidrug-resistant clinical isolates and two ATCC isolates were chosen to perform microbial susceptibility testing as models for studies with bacteria susceptible to antimicrobials found in the Gram-Positive and Gram-Negative groups of bacteria.
(§3) The broth microdilution method was performed according to the Clinical and Laboratory Standards Institute (CLSI) M07-A10 protocol to determine the Minimum Inhibitory Concentration (MIC; [Clinical Laboratory Standards Institute, 2015]). The assay was performed on 96-well microplates (TPP, United States), containing 5×10^5 CFU.ml^−1 of each tested bacterium per well and different peptide micromolar concentrations (Table 1) in a final volume of 100 μl of Mueller-Hinton Broth (MH). Negative control was represented by bacteria incubated in MH medium, while positive control was represented by culture incubated in MH medium with Amikacin. Plates were kept under agitation at 37°C in a BioTek spectrophotometer (PowerWaveTM HT Microplate Reader) with optical density (OD) readings at 595 nm every 30 min for 24 h. Inhibition results were analyzed using GraphPad Prism 8 software by comparing the OD from negative control wells (100%) to those containing peptides. All tests were performed in biological triplicates.

[4] = test system: Klebsiella pneumoniae carbapenemase (KPC 1410503); assay type: cell-based; settings: K. pneumoniae carbapenemase—KPC clinical isolate 1410503; 5×10^5 CFU.ml^−1, Mueller-Hinton Broth, 37°C, 24 h, OD 595 nm, biological triplicates; NE = MIC value not found
Experimental: as §1, §2, §3

| Compound | Minimum inhibitory concentration (MIC) [1] [µM] | cytotoxic effect on Hfib cells (in words) ([2]; all concentrations tested) | Minimum inhibitory concentration (MIC) [3] [µM] | activity on Hfib cells, reducing the cell viability (in words) ([2]; 35.4 μM) | Hfib cells eradicated ([2]; 70.8 μM) [%] | Hfib cells killed at the highest concentration ([2]; 70.43 (highest concentration)) [%] | cytotoxicity against Hfib cells at the other concentrations (in words) [2] | Minimum inhibitory concentration (MIC) [4] [µM] | Hfib cells killed at the highest concentration ([2]; 68.3 (highest concentration)) [%] |
| --- | --- | --- | --- | --- | --- | --- | --- | --- | --- |
| CC(C)C[C@H](NC(=O)[C@H](C)NC(=O)CNC(=O)[C@H](Cc1ccccc1)NC(=O)CN)C(=O)N[C@@H](Cc1ccccc1)C(=O)N[C@@H](CCCCN)C(=O)N[C@@H](CCCNC(=N)N)C(=O)N[C@@H](CC(C)C)C(=O)N[C@@H](C)C(=O)N[C@@H](CCCCN)C(=O)N[C@@H](CCCCN)C(=O)N[C@H](C(=O)N[C@@H](C)C(=O)N[C@@H](CCCCN)C(=O)N[C@H](C(=O)N[C@H](C(=O)N[C@@H](C)C(N)=O)C(C)C)[C@@H](C)O)C(C)C [Peptide R3b] (H-GFGALFKRLAKKVAKTVA-NH2) | 33.60 (≈ 64 µg/mL) | did not show any cytotoxic effect | 67.21 (≈ 128 µg/mL) |  |  |  |  |  |  |
| CC(C)C[C@H](NC(=O)[C@H](C)NC(=O)CNC(=O)[C@H](Cc1ccccc1)NC(=O)CN)C(=O)N[C@@H](Cc1ccccc1)C(=O)N[C@@H](CCCCN)C(=O)N[C@@H](Cc1ccccc1)C(=O)N[C@@H](CC(C)C)C(=O)N[C@@H](C)C(=O)N[C@@H](CCCCN)C(=O)N[C@@H](C)C(=O)N[C@H](C(=O)N[C@@H](C)C(=O)N[C@@H](CCCCN)C(=O)N[C@@H](C)C(=O)N[C@H](C(=O)N[C@@H](C)C(N)=O)C(C)C)C(C)C [Peptide R6b] (H-GFGALFKFLAKAVAKAVA-NH2) | 70.8 (≈ 128 µg/mL) |  | 35.4 (≈ 64 µg/mL) | slight activity | 100 |  |  |  |  |
| CC(C)C[C@H](NC(=O)[C@H](C)NC(=O)CNC(=O)[C@H](Cc1ccccc1)NC(=O)CN)C(=O)N[C@@H](Cc1ccccc1)C(=O)N[C@@H](CCCCN)C(=O)N[C@@H](CCCNC(=N)N)C(=O)N[C@@H](CC(C)C)C(=O)N[C@@H](C)C(=O)N[C@@H](CCCCN)C(=O)N[C@@H](C)C(=O)N[C@H](C(=O)N[C@@H](C)C(=O)N[C@@H](CCCCN)C(=O)N[C@@H](C)C(=O)N[C@H](C(=O)N[C@@H](C)C(N)=O)C(C)C)C(C)C [Peptide R8b] (H-GFGALFKRLAKAVAKAVA-NH2) | 35.21 (≈ 64 µg/mL) |  | 17.60 (≈ 32 µg/mL) |  |  | 100 | not harmful | 35.21 (≈ 64 µg/mL) |  |
| CC(C)C[C@H](NC(=O)[C@H](CCCNC(=N)N)NC(=O)[C@H](CCCCN)NC(=O)[C@H](Cc1ccccc1)NC(=O)[C@H](CC(C)C)NC(=O)[C@H](CCCCN)NC(=O)CNC(=O)[C@H](Cc1ccccc1)NC(=O)CN)C(=O)N[C@@H](C)C(=O)N[C@@H](CCCCN)C(=O)N[C@@H](C)C(=O)N[C@H](C(=O)N[C@@H](C)C(=O)N[C@@H](CCCCN)C(=O)N[C@@H](C)C(=O)N[C@H](C(=O)N[C@@H](C)C(N)=O)C(C)C)C(C)C [Peptide R10b] (H-GFGKLFKRLAKAVAKAVA-NH2) | 34.15 (≈ 64 µg/mL) |  | 17.07 (≈ 32 µg/mL) |  |  |  | not harmful | 17.07 (≈ 32 µg/mL) | 100 |
